Results from PubChem BioAssay AID1963839 (Molecular Pharmacology Branch, DTP, NCI, 2024).

System: 817829-284-R-J1-PDC complex spheroid viability
Assay: Anticancer human tumor 817829-284-R-J1-PDC patient-derived colon adenocarcinoma cell line growth inhibition [POLQ]
Details: for IC50: curve of first compound; for viability, T/C: stronger effect = lower value
Procedure: Multicellular complex tumor spheroid response to Polymerase (POL) inhibitors (novobiocin, ART-558, RP6685) in combination with a variety of drugs and investigational agents in selected tumor cell lines
The POL inhibitors (novobiocin, ART-558, and RP6685) were evaluated both individually and in combination with standard of care and investigational anticancer small molecules within a complex spheroid model of solid tumors. . Complex spheroids include a stromal component modeled by human endothelial cells (HUVEC) and fibroblasts modeled by human mesenchymal stem cells (MSCs). The concentration ranges selected for each drug and investigational agent were based upon clinically achievable concentrations if the clinical Cmax of the agent was known.
Compounds. The drugs and investigational agents: novobiocin (NSC847541), ART-558 (NSC835418), RP-6685 (NSC848927), peposertib (NSC802822), ceralasertib (NSC780249), elimusertib (NSC800525), camonsertib (NSC841442), AZD-1390 (NSC803789), olaparib (NSC753686), talazoparib (NSC767125), rucaparib (NSC756644), sotorasib (NSC818433), MRTX-1133 (NSC836407), SN-38 (NSC673596), topotecan (NSC609699), epotoside (NSC141540), doxorubicin (NSC123127), gemcitabine (NSC613327), 5-fluorouracil (NSC19893), paclitaxel (NSC125973), vemurafenib (NSC761431), MSA-2 (NSC828583), SN-011 (NSC837082), adavosertib (NSC754352), prexasertib (NSC758257), carboplatin (NSC241240) and oxaliplatin (NSC266046), were obtained from the National Cancer Institute (NCI) Developmental Therapeutics Program Chemical Repository (21). The FDA-approved anticancer drug set is available from the Developmental Therapeutics Program at https://dtp.cancer.gov/organization/dscb/obtaining/. […] The stock solutions were prepared in dimethyl sulfoxide (DMSO, Sigma-Aldrich, St. Louis, MO, cat. D2650), except for the platinum compounds which were prepared in saline (Quality Biological, Gaithersburg, MD, cat. 114-055-101), at 800-fold the tested concentration and stored at -70 degrees C prior to their use. All drugs and investigational agents were tested over a range starting from a high concentration at or near the clinical Cmax and decreasing in half-log increments. If the clinical Cmax for an agent had not been determined, the highest concentration tested was 10 microM, except for SN-38, which was tested at a high concentration of 1 microM.
Cell Culture. All cells were maintained in an incubator at 37 degrees C and 5% CO2 with 95% humidity. The PDC lines were cultured according to standard operating procedures established by the NCI PDMR (https://pdmr.cancer.gov). Table 3 of the manuscript, lists the cell lines along with the number of the three cell types plated to form the mct-spheroids and media for tumor cell growth. After thawing, all PDC lines, except 997537-175-T-J1-PDC and 415267-285-R-J2-PDC, were cultured in Matrigel-coated flasks prepared with a working solution of 1X Ham's F-12 nutrient mix, without supplementation (Thermo Fisher Scientific, cat. 11765054), 100 U/mL penicillin-streptomycin (Thermo Fisher Scientific, cat. 15140122), and 2.5% Matrigel (Corning Inc., Corning, NY, cat. 354248) for the first three passages. The two PDC lines 997537-175-T-J1-PDC and 415267-285-R-J2-PDC were cultured on uncoated flasks. The 857933-349-R-J2-PDC line was cultured in 6C/Colon 1B media containing advanced DMEM/F-12 (Thermo Fisher Scientific, cat. 12634028), 10 mM HEPES (Thermo Fisher Scientific, cat. 15630080), 1X GlutaMAX supplement (Thermo Fisher Scientific, cat. 35050061), 0.1 mg/mL primocin (InvivoGen, San Diego, CA, cat. ant-pm-2), 10% defined fetal bovine serum, heat inactivated (HyClone Laboratories Inc., Logan, UT, cat. SH30070.03HI), 50% L-WRN conditioned media (ATCC, cat. CRL-3276), 1.25 mM N-Acetyl-L-cysteine (Sigma-Aldrich, cat. A9165), 10 mM nicotinamide (Sigma-Aldrich, cat. N0636), 1X B-27 supplement (Thermo Fisher Scientific, cat. 17504044), 1X N-2 supplement (Thermo Fisher Scientific, cat. […]
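Further: spheroids exposed to compounds for 7 days.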
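Wherever viability, T/C is given: 100% = DMSO vehicle-treated spheroids.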

In the case of O=c1[nH]cc(F)c(=O)[nH]1 + COC1C(OC(N)=O)C(O)C(Oc2ccc3c(O)c(NC(=O)c4ccc(O)c(CC=C(C)C)c4)c(=O)oc3c2C)OC1(C)C, the IC50 (second compound 0.0316 µM) is reported as 2.4 µM, the IC50 (second compound 0.1 µM) is reported as 8.96 µM and the IC50 (second compound 0.316 µM) is reported as 3.42 µM. For the same molecule, the IC50 (second compound 1 µM) was 2.92 µM, the IC50 (second compound 3.16 µM) was 2.13 µM and the IC50 (second compound 10 µM) was 8.93 µM. The viability, T/C (second compound 0.0316 µM, first compound 0.0316 µM) was 97.6%, the viability, T/C (second compound 0.0316 µM, first compound 0.1 µM) was 144% and the viability, T/C (second compound 0.0316 µM, first compound 0.316 µM) was 102%. It also gave a viability, T/C (second compound 0.0316 µM, first compound 1 µM) of 68.8%, a viability, T/C (second compound 0.0316 µM, first compound 3.16 µM) of 42.6% and a viability, T/C (second compound 0.0316 µM, first compound 10 µM) of 43.1%. The viability, T/C (second compound 0.1 µM, first compound 0.0316 µM) was 90.7%, the viability, T/C (second compound 0.1 µM, first compound 0.1 µM) was 94% and the viability, T/C (second compound 0.1 µM, first compound 0.316 µM) was 92.5%. The viability, T/C (second compound 0.1 µM, first compound 1 µM) was 77.6%, the viability, T/C (second compound 0.1 µM, first compound 3.16 µM) was 50.2% and the viability, T/C (second compound 0.1 µM, first compound 10 µM) was 50%. For the same molecule, the viability, T/C (second compound 0.316 µM, first compound 0.0316 µM) was 80%, the viability, T/C (second compound 0.316 µM, first compound 0.1 µM) was 84.2% and the viability, T/C (second compound 0.316 µM, first compound 0.316 µM) was 70%. It also gave a viability, T/C (second compound 0.316 µM, first compound 1 µM) of 70.2%, a viability, T/C (second compound 0.316 µM, first compound 3.16 µM) of 51.1% and a viability, T/C (second compound 0.316 µM, first compound 10 µM) of 26.6%. The viability, T/C (second compound 1 µM, first compound 0.0316 µM) was 98.3%, the viability, T/C (second compound 1 µM, first compound 0.1 µM) was 86.8% and the viability, T/C (second compound 1 µM, first compound 0.316 µM) was 95.1%. For the same molecule, the viability, T/C (second compound 1 µM, first compound 1 µM) was 86.5%, the viability, T/C (second compound 1 µM, first compound 3.16 µM) was 47.2% and the viability, T/C (second compound 1 µM, first compound 10 µM) was 47.3%. For the same molecule, the viability, T/C (second compound 3.16 µM, first compound 0.0316 µM) was 128%, the viability, T/C (second compound 3.16 µM, first compound 0.1 µM) was 114% and the viability, T/C (second compound 3.16 µM, first compound 0.316 µM) was 108%. It also gave a viability, T/C (second compound 3.16 µM, first compound 1 µM) of 57.8%, a viability, T/C (second compound 3.16 µM, first compound 3.16 µM) of 50.4% and a viability, T/C (second compound 3.16 µM, first compound 10 µM) of 39.9%. It also gave a viability, T/C (second compound 10 µM, first compound 0.0316 µM) of 107%, a viability, T/C (second compound 10 µM, first compound 0.1 µM) of 101% and a viability, T/C (second compound 10 µM, first compound 0.316 µM) of 77.9%. The viability, T/C (second compound 10 µM, first compound 1 µM) was 84.3%, the viability, T/C (second compound 10 µM, first compound 3.16 µM) was 62.3% and the viability, T/C (second compound 10 µM, first compound 10 µM) was 47.4%.
